# Source: PMC7248956, “Discovery of Novel Imidazopyridine GSK-3β Inhibitors Supported by Computational Approaches” (Molecules, 2020)
# Target: T1, GSK-3β (Homo sapiens, UniProt P49841)
# Test: not given
# Set-up: method as in PMID 26486317, PMID 32435391
# Conditions: INDZ derivatives 1–6, published ahead; cited from earlier work
# T1 sequence (P49841 whole entry): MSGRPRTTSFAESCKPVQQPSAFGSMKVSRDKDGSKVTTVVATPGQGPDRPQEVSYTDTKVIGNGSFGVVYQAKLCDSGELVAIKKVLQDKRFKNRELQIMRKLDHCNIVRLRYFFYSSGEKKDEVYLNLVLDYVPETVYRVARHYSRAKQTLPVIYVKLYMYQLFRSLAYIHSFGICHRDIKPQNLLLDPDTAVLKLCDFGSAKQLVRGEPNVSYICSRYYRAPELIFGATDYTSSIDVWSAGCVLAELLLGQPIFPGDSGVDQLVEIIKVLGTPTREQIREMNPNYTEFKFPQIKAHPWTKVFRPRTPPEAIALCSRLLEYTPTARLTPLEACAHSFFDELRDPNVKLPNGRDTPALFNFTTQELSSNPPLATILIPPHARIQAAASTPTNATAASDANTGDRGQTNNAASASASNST
row,SMILES,IC50 [nM]
1,COCCN1CCC(CNC(=O)c2n[nH]c3ccc(-c4cncc(OC(C)C)c4)cc23)CC1 [Compound 2],9

# Same assay, conditions: INDZ derivatives; cited from earlier work
row,SMILES,IC50 [nM]
1,COCCN1CCC(CNC(=O)c2n[nH]c3ccc(-c4cncc(OC(C)C)c4)cc23)CC1 [Compound 2],4

# Target: T1, GSK-3β
# Test: in vitro GSK-3β inhibition assay
# Format: biochemical
# Conditions: IMID 1 and IMID 2 derivatives 7–18; average of duplicate wells
# Method: Driven by the promising results, compounds 7–18 were synthesized as reported in Chemistry Section 2.1. Their biological activity was determined using an in vitro GSK-3β assay described elsewhere. […] In vitro MDCK-MDR1 permeability of IMID 1 and IMID 2 derivatives was also experimentally assessed (Table 1). […] In this respect, a decrease of TPSA was observed moving from INDZ 6 to the corresponding analogues 12 (IMID 1) and 18 (IMID 2), and from 3 to 15. The SAR analysis highlighted the detrimental impact of the positively charged piperidine ring of 2-8-14 triplet and derivative 13 on CNS permeability. […] When the piperidine was replaced with an oxanyl ring, while keeping the isopropoxypyridinyl group on the other side (2 vs. 4 and 8 vs. 10), a low CNS penetration was still observed, indicating a coexisting unfavorable contribution (high TPSA) of the R2 moiety to permeability. The comparison of the 4–10 pyridinyl derivatives with the corresponding 6–12 di-F-phenyl molecules confirmed an ameliorated BBB permeability when lipophilicity raises.
row,SMILES,IC50 [nM]
1,"COCCN1CCC(CNC(=O)c2ncn3ccc(-c4cccnc4)cc23)CC1 [Compound 7, N-((1-(2-Methoxyethyl)piperidin-4-yl)methyl)-7-(pyridin-3-yl)imidazo[1,5-a]pyridine-1-carboxamide]",410
2,"COCCN1CCC(CNC(=O)c2ncn3ccc(-c4cncc(OC(C)C)c4)cc23)CC1 [Compound 8, 7-(5-Isopropoxypyridin-3-yl)-N-((1-(2-methoxyethyl)piperidin-4-yl)methyl)imidazo[1,5-a]pyridine-1-carboxamide]",120
3,"O=C(NCC1CCOCC1)c1ncn2ccc(-c3cccnc3)cc12 [Compound 9, 7-(Pyridin-3-yl)-N-((tetrahydro-2H-pyran-4-yl)methyl)imidazo[1,5-a]pyridine-1-carboxamide]",180
4,"CC(C)Oc1cncc(-c2ccn3cnc(C(=O)NCC4CCOCC4)c3c2)c1 [Compound 10, 7-(5-Isopropoxypyridin-3-yl)-N-((tetrahydro-2H-pyran-4-yl)methyl)imidazo[1,5-a]pyridine-1-carboxamide]",200
5,"O=C(NCC1CCOCC1)c1ncn2ccc(-c3cnccc3CO)cc12 [Compound 11, 7-(4-(Hydroxymethyl)pyridin-3-yl)-N-((tetrahydro-2H-pyran-4-yl)methyl)imidazo [1,5-a]pyridine-1-carboxamide]",1400
6,"O=C(NCC1CCOCC1)c1ncn2ccc(-c3cccc(F)c3F)cc12 [Compound 12, 7-(2,3-Difluorophenyl)-N-((tetrahydro-2H-pyran-4-yl)methyl)imidazo[1,5-a]pyridine-1-carboxamide]",280
7,"COCCN1CCC(CNC(=O)c2ncc3ccc(-c4cccnc4)cn23)CC1 [Compound 13, N-((1-(2-Methoxyethyl)piperidin-4-yl)methyl)-6-(pyridin-3-yl)imidazo[1,5-a]pyridine-3-carboxamide]",370
8,"COCCN1CCC(CNC(=O)c2ncc3ccc(-c4cncc(OC(C)C)c4)cn23)CC1 [Compound 14, 6-(5-Isopropoxypyridin-3-yl)-N-((1-(2-methoxyethyl)piperidin-4-yl)methyl)imidazo[1,5-a]pyridine-3-carboxamide]",230
9,"O=C(NCC1CCOCC1)c1ncc2ccc(-c3cccnc3)cn12 [Compound 15, 6-(Pyridin-3-yl)-N-((tetrahydro-2H-pyran-4-yl)methyl)imidazo[1,5-a]pyridine-3-carboxamide]",91
10,"CC(C)Oc1cncc(-c2ccc3cnc(C(=O)NCC4CCOCC4)n3c2)c1 [Compound 16, 6-(5-Isopropoxypyridin-3-yl)-N-((tetrahydro-2H-pyran-4-yl)methyl)imidazo[1,5-a]pyridine-3-carboxamide]",72
11,"O=C(NCC1CCOCC1)c1ncc2ccc(-c3cnccc3CO)cn12 [Compound 17, 6-(4-(Hydroxymethyl)pyridin-3-yl)-N-((tetrahydro-2H-pyran-4-yl)methyl)imidazo[1,5-a]pyridine-3-carboxamide]",910
12,"O=C(NCC1CCOCC1)c1ncc2ccc(-c3cccc(F)c3F)cn12 [Compound 18, 6-(2,3-Difluorophenyl)-N-((tetrahydro-2H-pyran-4-yl)methyl)imidazo[1,5-a]pyridine-3-carboxamide]",240
